For data set [1], the target named is T1, Citron Rho-interacting kinase (Homo sapiens, UniProt O14578).
The nature of data set [2]: Unbound fraction in human plasma measured after 4.5 hrs by LC-MS/MS analysis. It counts as ADME, cell-free.
The nature of data set [3]: Unbound fraction in rat plasma measured after 4.5 hrs by LC-MS/MS analysis. It is filed as ADME, cell-free.
Data set [4] in a line: Apparent permeability across apical to basolateral side in dog MDCK cells incubated for 1 hr by LCMS analysis. It counts as ADME, cell-based, Canis lupus familiaris.
The target in a further data set is CYP2D6 (Homo sapiens, UniProt P10635). The experiment in a line: Inhibition of CYP2D6 (unknown origin) at 10 uM by LC/MS/MS analysis relative to control. It counts as ADME.
The next data set concerns the target CYP3A4 (Homo sapiens, UniProt P08684). Description: Inhibition of CYP3A4 (unknown origin) at 10 uM by LC/MS/MS analysis relative to control. It is filed as ADME.
A further data set has as its target CYP2C9 (Homo sapiens, UniProt P11712). The experiment in a line: Inhibition of CYP2C9 (unknown origin) at 10 uM by LC/MS/MS analysis relative to control. It is filed as ADME.
Data set [5] is described as follows: Cmax in Sprague-Dawley rat at 1 mg/kg, iv measured upto 24 hrs. The note with it: in vivo. It is filed as ADME, organism-based.
Data set [6] in a line: AUC in Sprague-Dawley rat at 1 mg/kg, iv measured upto 24 hrs. It counts as ADME, organism-based. The note with it: in vivo.
The nature of data set [7]: Half life in Sprague-Dawley rat at 1 mg/kg, iv measured upto 24 hrs. The conditions noted are these: in vivo. It is filed as ADME, organism-based.
Data set [8] is described as follows: Plasma clearance in Sprague-Dawley rat at 1 mg/kg, iv measured upto 24 hrs. It is filed as ADME, organism-based.
A short description of data set [9]: Volume of distribution at steady state in Sprague-Dawley rat at 1 mg/kg, iv measured upto 24 hrs. It counts as ADME, organism-based. The note with it: in vivo, read-out: Vdss.
A short description of data set [10]: Cmax in Sprague-Dawley rat at 10 mg/kg, po measured upto 24 hrs. It is filed as ADME, organism-based. The conditions noted are these: in vivo.
Data set [11] in a line: AUC in Sprague-Dawley rat at 10 mg/kg, po measured upto 24 hrs. It is filed as ADME, organism-based. The conditions noted are these: in vivo.
Data set [12] is described as follows: Half life in Sprague-Dawley rat at 10 mg/kg, po measured upto 24 hrs. It is filed as ADME, organism-based. The conditions noted are these: in vivo.
Data set [13] in a line: Oral bioavailability in Sprague-Dawley rat at 10 mg/kg measured upto 24 hrs. It counts as ADME, organism-based. The note with it: in vivo.
Data set [14] is described as follows: Cmax in CD-1 disease model mouse plasma at 30 mg/kg, po measured after 24 hrs. The conditions noted are these: CD-1, mouse. It counts as ADME, organism-based.
The nature of data set [15]: AUC in CD-1 disease model mouse plasma at 30 mg/kg, po measured after 24 hrs. It counts as ADME, organism-based. The note with it: CD-1, mouse.
A short description of data set [16]: Cmax in CD-1 disease model mouse brain at 30 mg/kg, po measured after 24 hrs. It counts as ADME, organism-based. The note with it: CD-1, mouse.
The nature of data set [17]: AUC in CD-1 disease model mouse brain at 30 mg/kg, po measured after 24 hrs. It counts as ADME, organism-based. The conditions noted are these: CD-1, mouse.
Data set [18] has as its system Panel NCI-60 (60 carcinoma cell lines). Description: Antiproliferative activity against human Panel NCI-60 (60 carcinoma cell lines) assessed as cell viability incubated for 48 hrs by CellTiter-Glo cell viability assay. It is filed as functional. A general note: ATP-based viability assays read luminescence as a measure of living cells.
The subject of the next data set is Hs-578T. The experiment in a line: Antiproliferative activity against human Hs-578T cells assessed as cell viability incubated for 48 hrs by CellTiter-Glo cell viability assay. It counts as functional.
A further data set concerns COLO 205. The experiment in a line: Antiproliferative activity against human COLO 205 Panel cells assessed as cell viability incubated for 48 hrs by CellTiter-Glo cell viability assay. It is filed as functional.
The next data set concerns 786-0. Description: Antiproliferative activity against human 786-0 Panel cells assessed as cell viability incubated for 48 hrs by CellTiter-Glo cell viability assay. It counts as functional.
A further data set relates to JVM-3. Description: Antiproliferative activity against human JVM-3 cells assessed as cell viability by standard PRISM assay. It is filed as functional, cell-based.
Data set [19] addresses T1, Citron Rho-interacting kinase. Description: Binding affinity to NanoLuc fused-CITK kinase domain (unknown origin) expressed in HEK293T cells assessed as dissociation constant NanoBRET Target Engagement Intracellular Kinase Assay. It is filed as cell-based.
The target is the same in data set [20]. Description: Binding affinity to NanoLuc fused-CITK (unknown origin) expressed in HEK293T cells assessed as dissociation constant NanoBRET Target Engagement Intracellular Kinase Assay. It is filed as cell-based. For orientation: BRET reads energy transfer from a luciferase to a nearby fluorophore.

This is an account of results in ChEMBL document CHEMBL5537207, “Discovery and Characterization of Selective, First-in-Class Inhibitors of Citron Kinase” (J Med Chem, 2024).

SMILES strings stand for the structures.

One may read the IC50 as the concentration that gives 50% inhibition. What is called Papp A→B is the apparent permeability from the apical to the basolateral side of a cell layer. For orientation: inhibition means how much of the control response was suppressed. Low values mean a response near the control, high ones a response far below the control. Broadly, the Cmax is the peak of the concentration-time curve. Broadly, the AUC is concentration integrated over time. The term half-life denotes the time needed for the level to fall by half in the phase considered. Read a high half-life as slow decline. As a reminder, the clearance is the volume of plasma or blood freed of the substance per unit of time. Higher therefore signals efficient removal. By GI50 is commonly meant the concentration at which growth is held to half of that of the control.

T1 sequence (O14578 whole entry): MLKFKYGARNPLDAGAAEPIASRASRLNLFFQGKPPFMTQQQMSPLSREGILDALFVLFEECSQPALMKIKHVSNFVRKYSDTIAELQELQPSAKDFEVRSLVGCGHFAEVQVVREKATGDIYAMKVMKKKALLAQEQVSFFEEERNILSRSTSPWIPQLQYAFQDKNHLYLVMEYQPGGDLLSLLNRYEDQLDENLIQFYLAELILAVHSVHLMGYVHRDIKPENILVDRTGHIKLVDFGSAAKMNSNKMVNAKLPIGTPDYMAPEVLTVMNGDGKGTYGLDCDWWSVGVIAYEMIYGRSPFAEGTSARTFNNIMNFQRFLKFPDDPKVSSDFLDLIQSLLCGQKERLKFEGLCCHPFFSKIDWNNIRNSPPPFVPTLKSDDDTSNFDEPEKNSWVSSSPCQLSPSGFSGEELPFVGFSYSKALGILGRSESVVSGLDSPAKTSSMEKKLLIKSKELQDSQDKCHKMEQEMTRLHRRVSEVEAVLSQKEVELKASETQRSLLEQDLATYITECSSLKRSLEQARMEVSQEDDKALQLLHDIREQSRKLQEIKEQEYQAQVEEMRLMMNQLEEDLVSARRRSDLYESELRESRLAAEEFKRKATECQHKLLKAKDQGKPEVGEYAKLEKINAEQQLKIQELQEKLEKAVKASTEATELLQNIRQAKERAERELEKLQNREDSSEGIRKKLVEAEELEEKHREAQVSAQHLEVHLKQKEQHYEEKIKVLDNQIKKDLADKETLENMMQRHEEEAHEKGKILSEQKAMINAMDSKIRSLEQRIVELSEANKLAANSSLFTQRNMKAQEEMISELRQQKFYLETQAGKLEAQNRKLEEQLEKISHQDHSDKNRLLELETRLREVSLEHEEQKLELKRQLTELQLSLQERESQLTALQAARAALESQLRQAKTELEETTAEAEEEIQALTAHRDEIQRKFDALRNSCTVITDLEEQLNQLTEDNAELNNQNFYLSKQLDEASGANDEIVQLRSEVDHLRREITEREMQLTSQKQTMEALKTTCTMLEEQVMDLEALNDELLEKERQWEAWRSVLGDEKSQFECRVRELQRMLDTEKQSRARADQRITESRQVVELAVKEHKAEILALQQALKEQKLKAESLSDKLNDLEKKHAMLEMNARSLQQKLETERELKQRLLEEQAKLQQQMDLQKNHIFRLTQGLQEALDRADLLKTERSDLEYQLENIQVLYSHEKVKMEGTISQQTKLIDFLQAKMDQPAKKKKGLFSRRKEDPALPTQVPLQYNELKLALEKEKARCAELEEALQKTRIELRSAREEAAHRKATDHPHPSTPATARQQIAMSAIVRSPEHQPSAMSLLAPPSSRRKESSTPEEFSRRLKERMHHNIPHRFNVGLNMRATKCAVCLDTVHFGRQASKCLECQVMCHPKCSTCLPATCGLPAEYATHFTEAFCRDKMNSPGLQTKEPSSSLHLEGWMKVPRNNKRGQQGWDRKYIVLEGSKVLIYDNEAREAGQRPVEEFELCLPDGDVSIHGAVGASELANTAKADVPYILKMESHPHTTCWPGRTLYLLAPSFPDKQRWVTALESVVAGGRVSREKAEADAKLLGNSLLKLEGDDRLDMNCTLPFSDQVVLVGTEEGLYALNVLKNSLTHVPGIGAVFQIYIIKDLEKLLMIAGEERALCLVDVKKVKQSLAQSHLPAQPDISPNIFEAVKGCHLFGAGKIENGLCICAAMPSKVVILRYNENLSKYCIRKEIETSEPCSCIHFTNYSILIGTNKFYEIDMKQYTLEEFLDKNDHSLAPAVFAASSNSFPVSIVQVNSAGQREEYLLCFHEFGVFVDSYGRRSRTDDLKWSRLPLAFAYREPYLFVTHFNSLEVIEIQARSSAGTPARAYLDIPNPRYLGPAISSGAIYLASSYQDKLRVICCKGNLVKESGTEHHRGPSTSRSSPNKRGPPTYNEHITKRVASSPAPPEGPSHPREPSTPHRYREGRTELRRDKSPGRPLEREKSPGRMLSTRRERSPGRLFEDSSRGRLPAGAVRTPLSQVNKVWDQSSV
Sequence of CYP2C9 (P11712 whole entry): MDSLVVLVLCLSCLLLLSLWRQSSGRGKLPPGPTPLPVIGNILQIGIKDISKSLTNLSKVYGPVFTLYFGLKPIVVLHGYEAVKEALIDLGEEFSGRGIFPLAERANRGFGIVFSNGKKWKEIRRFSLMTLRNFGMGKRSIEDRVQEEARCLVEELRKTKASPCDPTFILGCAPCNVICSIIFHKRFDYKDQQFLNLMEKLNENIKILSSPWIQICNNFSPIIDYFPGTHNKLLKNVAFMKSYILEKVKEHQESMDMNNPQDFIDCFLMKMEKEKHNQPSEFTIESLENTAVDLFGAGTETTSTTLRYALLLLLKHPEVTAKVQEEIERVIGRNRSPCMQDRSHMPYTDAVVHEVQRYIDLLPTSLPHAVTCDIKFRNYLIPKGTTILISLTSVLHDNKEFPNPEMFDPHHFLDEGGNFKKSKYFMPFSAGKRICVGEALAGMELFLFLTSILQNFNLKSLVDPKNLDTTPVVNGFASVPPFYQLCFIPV
Sequence of CYP2D6 (P10635 whole entry): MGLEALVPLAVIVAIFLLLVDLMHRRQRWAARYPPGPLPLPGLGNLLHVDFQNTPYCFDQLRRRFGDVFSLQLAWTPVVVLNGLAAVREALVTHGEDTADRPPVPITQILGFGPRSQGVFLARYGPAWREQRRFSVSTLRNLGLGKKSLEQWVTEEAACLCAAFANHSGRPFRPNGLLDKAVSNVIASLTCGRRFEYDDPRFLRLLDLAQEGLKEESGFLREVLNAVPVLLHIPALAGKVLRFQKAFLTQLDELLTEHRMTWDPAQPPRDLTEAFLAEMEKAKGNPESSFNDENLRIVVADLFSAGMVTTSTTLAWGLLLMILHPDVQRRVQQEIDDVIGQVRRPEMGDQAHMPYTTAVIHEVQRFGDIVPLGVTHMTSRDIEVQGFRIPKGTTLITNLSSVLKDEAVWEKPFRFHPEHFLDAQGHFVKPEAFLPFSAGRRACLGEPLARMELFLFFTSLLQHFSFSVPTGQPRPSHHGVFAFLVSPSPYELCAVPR
Sequence of CYP3A4 (P08684 whole entry): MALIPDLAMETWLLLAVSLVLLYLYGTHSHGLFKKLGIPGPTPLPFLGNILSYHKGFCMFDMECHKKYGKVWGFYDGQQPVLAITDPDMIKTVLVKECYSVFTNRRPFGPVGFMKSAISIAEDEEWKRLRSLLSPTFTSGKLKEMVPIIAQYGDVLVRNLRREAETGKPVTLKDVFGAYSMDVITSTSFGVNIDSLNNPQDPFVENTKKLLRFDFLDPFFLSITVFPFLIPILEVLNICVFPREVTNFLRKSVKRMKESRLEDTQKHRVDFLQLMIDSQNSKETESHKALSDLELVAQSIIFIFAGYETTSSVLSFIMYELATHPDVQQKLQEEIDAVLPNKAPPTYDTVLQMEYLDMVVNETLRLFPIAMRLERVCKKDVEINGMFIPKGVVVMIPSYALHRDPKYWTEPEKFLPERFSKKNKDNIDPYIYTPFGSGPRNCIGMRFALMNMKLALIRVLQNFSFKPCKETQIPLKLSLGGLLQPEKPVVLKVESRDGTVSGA

Turning to `CC(N)C(=O)Nc1ccc(-c2ccnc3[nH]ccc23)cc1` (centres undefined), in [1], half-maximal inhibition (IC50) required 250 nM.
Consider `Cc1cc2c(-c3ccc(NC(=O)[C@H](N)CC(C)(C)C)cc3C)ccnc2[nH]1`, for which the values for the Fu in data set [2] and in [3] were 0.52% and 0.26%, respectively. The Papp A→B at 1 h in [4] was found to be 21.3 ×10⁻⁶ cm/s. In addition, the values for the inhibition at 10 µM at CYP2D6, against CYP3A4 and against CYP2C9 were 56.2%, 28.3% and 6.7%, respectively. Further, the Cmax in data set [5] was 5.8 µM; in data set [10] it was 12.3 µM; in data set [14], 12.9 µM; in data set [16], 1.02 µM. Also, the exposure (AUC) was 10.2 µM·h in data set [6] and 7.3 µM·h in data set [11]. In addition, the half-life is 4.3 h in data set [7] and 4 h in [12]. Further, the clearance in data set [8] amounted to 4.4 mL/min/kg. Also, in data set [9], the Vd came to 0.91 L/kg. Further, the F in data set [13] amounted to 72%. Also, the exposure (AUC) at 24 h in data set [15] was 90.5 µM·h; in data set [17], 7.71 µM·h. Moreover, the GI50 is 7000 nM in [18], under 2000 nM in the data set on Hs-578T, under 2000 nM in the data set with COLO 205 and under 2000 nM in the data set with 786-0.
With `CC(C)CC(CN)C(=O)Nc1ccc(-c2ccnc3[nH]ccc23)cc1` (centres undefined), in [1], 410 nM corresponded to half-maximal inhibition (IC50).
Still for that read-out and setting: under `CC(C)C[C@H](N)C(=O)Nc1ccc(-c2ccnc3[nH]ccc23)cc1` stands 42 nM; under `CC(N)c1ccc(-c2ccnc3[nH]ccc23)cc1` (centres undefined), 500 nM.
`Cc1cc2c(-c3ccc(NC(=O)[C@H](N)[C@@H](O)C(C)C)cc3C)ccnc2[nH]1`: the 50% inhibitory concentration (IC50) came out at 4400 nM in the data set on JVM-3 and 5.5 nM in [1].
Consider `Cc1cc2c(-c3ccc(NC(=O)[C@H](N)CC(C)(C)C)cc3C)cncc2[nH]1`, for which the Kd entry in data set [19] and in data set [20] was “Not Active” throughout. Moreover, in data set [1], the IC50 is over 30000 nM.
On to `C[C@@H](N)c1ccc(C(=O)Nc2ccnc3[nH]ccc23)cc1` [Y-39983], for which the midpoint of inhibition in data set [1], the IC50, lay at 150 nM.
`Cc1cc2c(-c3ccc(NC(=O)[C@@H](N)[C@H](O)C(C)C)cc3C)ccnc2[nH]1` showed an IC50 in [1] of 16 nM.
